Measured values taken from PubChem BioAssay (NCI).
“And” between values parts separate entries of the source, which are not always exact repeats. Identical values can stand only once.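 Compound exposure: 48 hours, 5 concentrations, 96-well plates. Abbreviation: GI50, concentration required for 50% inhibition of growth. TGI: total growth inhibition.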

How the values were obtained:
Assay in all cases: growth of human tumour cells (NCI), 48 h
786-0 renal = system: 786-0 renal
A498 renal = system: A498 renal
A549 NSCLC = system: A549 NSCLC
ACHN renal = system: ACHN renal
BT-549 breast = system: BT-549 breast
CAKI-1 renal = system: CAKI-1 renal
CCRF-CEM leukemia = system: CCRF-CEM leukemia
COLO 205 colon = system: COLO 205 colon
DU-145 prostate = system: DU-145 prostate
EKVX NSCLC = system: EKVX NSCLC
HCC-2998 colon = system: HCC-2998 colon
HCT-116 colon = system: HCT-116 colon
HCT-15 colon = system: HCT-15 colon
HL-60(TB) leukemia = system: HL-60(TB) leukemia
HOP-62 NSCLC = system: HOP-62 NSCLC
HOP-92 NSCLC = system: HOP-92 NSCLC
HS 578T breast = system: HS 578T breast
IGROV1 ovarian = system: IGROV1 ovarian
K-562 leukemia = system: K-562 leukemia
KM12 colon = system: KM12 colon
M14 melanoma = system: M14 melanoma
MALME-3M melanoma = system: MALME-3M melanoma
MCF7 breast = system: MCF7 breast
MDA-MB-435 = system: MDA-MB-435
MOLT-4 leukemia = system: MOLT-4 leukemia
NCI-H23 lung = system: NCI-H23 lung
NCI-H460 lung = system: NCI-H460 lung
NCI-H522 lung = system: NCI-H522 lung
NCI/ADR-RES ovarian = system: NCI/ADR-RES ovarian
OVCAR-3 ovarian = system: OVCAR-3 ovarian
OVCAR-4 ovarian = system: OVCAR-4 ovarian
OVCAR-5 ovarian = system: OVCAR-5 ovarian
OVCAR-8 ovarian = system: OVCAR-8 ovarian
PC-3 prostate = system: PC-3 prostate
RPMI-8226 leukemia = system: RPMI-8226 leukemia
RXF 393 renal = system: RXF 393 renal
SF-268 CNS = system: SF-268 CNS
SF-295 CNS = system: SF-295 CNS
SF-539 CNS = system: SF-539 CNS
SK-MEL-2 melanoma = system: SK-MEL-2 melanoma
SK-MEL-5 melanoma = system: SK-MEL-5 melanoma
SK-OV-3 ovarian = system: SK-OV-3 ovarian
SN12C renal = system: SN12C renal
SNB-19 CNS = system: SNB-19 CNS
SNB-75 CNS = system: SNB-75 CNS
SW-620 colon = system: SW-620 colon
T-47D breast = system: T-47D breast
TK-10 renal = system: TK-10 renal
UACC-257 melanoma = system: UACC-257 melanoma
UO-31 renal = system: UO-31 renal
HT29 colon = system: HT29 colon
MDA-MB-231 breast = system: MDA-MB-231 breast
NCI-H226 lung = system: NCI-H226 lung
SR leukemia = system: SR leukemia
U251 CNS = system: U251 CNS
UACC-62 melanoma = system: UACC-62 melanoma
SK-MEL-28 melanoma = system: SK-MEL-28 melanoma

## Fc1ccc(C2NC(=S)NC3=C2CCOc2c3ccc3ccccc23)cc1 (configuration not stated)
786-0 renal
  TGI: > 100 µM
A498 renal
  TGI: 79.5 µM
A549 NSCLC
  TGI: > 100 µM
ACHN renal
  TGI: > 100 µM
BT-549 breast
  TGI: > 100 µM
CAKI-1 renal
  TGI: > 100 µM
CCRF-CEM leukemia
  TGI: > 100 µM
COLO 205 colon
  TGI: 30.3 µM
DU-145 prostate
  TGI: > 100 µM
EKVX NSCLC
  TGI: > 100 µM
HCC-2998 colon
  TGI: 69.1 µM
HCT-116 colon
  TGI: 30.1 µM
HCT-15 colon
  TGI: > 100 µM
HL-60(TB) leukemia
  TGI: > 100 µM
HOP-62 NSCLC
  TGI: > 100 µM
HOP-92 NSCLC
  TGI: > 100 µM
HS 578T breast
  TGI: > 100 µM
IGROV1 ovarian
  TGI: > 100 µM
K-562 leukemia
  TGI: > 100 µM
KM12 colon
  TGI: > 100 µM
M14 melanoma
  TGI: > 100 µM
MALME-3M melanoma
  TGI: > 100 µM
MCF7 breast
  TGI: > 100 µM
MDA-MB-435
  TGI: 43.4 µM
MOLT-4 leukemia
  TGI: > 100 µM
NCI-H23 lung
  TGI: > 100 µM
NCI-H460 lung
  TGI: > 100 µM
NCI-H522 lung
  TGI: > 100 µM
NCI/ADR-RES ovarian
  TGI: 76.2 µM
OVCAR-3 ovarian
  TGI: > 100 µM
OVCAR-4 ovarian
  TGI: > 100 µM
OVCAR-5 ovarian
  TGI: > 100 µM
OVCAR-8 ovarian
  TGI: > 100 µM
PC-3 prostate
  TGI: > 100 µM
RPMI-8226 leukemia
  TGI: > 100 µM
RXF 393 renal
  TGI: > 100 µM
SF-268 CNS
  TGI: > 100 µM
SF-295 CNS
  TGI: > 100 µM
SF-539 CNS
  TGI: > 100 µM
SK-MEL-2 melanoma
  TGI: > 100 µM
SK-MEL-5 melanoma
  TGI: 37.1 µM
SK-OV-3 ovarian
  TGI: > 100 µM
SN12C renal
  TGI: > 100 µM
SNB-19 CNS
  TGI: > 100 µM
SNB-75 CNS
  TGI: > 100 µM
SW-620 colon
  TGI: > 100 µM
T-47D breast
  TGI: 9.44 µM
TK-10 renal
  TGI: > 100 µM
UACC-257 melanoma
  TGI: > 100 µM
UO-31 renal
  TGI: > 100 µM

## Cc1c(NC(=S)N/N=C\C(=N/NC(=S)Nc2c(C)n(C)n(-c3ccccc3)c2=O)c2ccccc2)c(=O)n(-c2ccccc2)n1C
786-0 renal
  TGI: > 100 µM
A498 renal
  TGI: > 100 µM
A549 NSCLC
  TGI: > 100 µM
ACHN renal
  TGI: > 100 µM
BT-549 breast
  TGI: > 100 µM
CAKI-1 renal
  TGI: > 100 µM
COLO 205 colon
  TGI: > 100 µM
DU-145 prostate
  TGI: > 100 µM
EKVX NSCLC
  TGI: > 100 µM
HCC-2998 colon
  TGI: > 100 µM
HCT-116 colon
  TGI: > 100 µM
HCT-15 colon
  TGI: > 100 µM
HOP-62 NSCLC
  TGI: > 100 µM
HOP-92 NSCLC
  TGI: > 100 µM
HS 578T breast
  TGI: > 100 µM
HT29 colon
  TGI: > 100 µM
KM12 colon
  TGI: > 100 µM
M14 melanoma
  TGI: > 100 µM
MALME-3M melanoma
  TGI: > 100 µM
MDA-MB-231 breast
  TGI: > 100 µM
MDA-MB-435
  TGI: > 100 µM
MOLT-4 leukemia
  TGI: > 100 µM
NCI-H226 lung
  TGI: > 100 µM
NCI-H23 lung
  TGI: > 100 µM
NCI-H460 lung
  TGI: > 100 µM
NCI/ADR-RES ovarian
  TGI: > 100 µM
OVCAR-3 ovarian
  TGI: > 100 µM
OVCAR-4 ovarian
  TGI: > 100 µM
OVCAR-5 ovarian
  TGI: > 100 µM
PC-3 prostate
  TGI: > 100 µM
RXF 393 renal
  TGI: > 100 µM
SF-268 CNS
  TGI: > 100 µM
SF-295 CNS
  TGI: > 100 µM
SF-539 CNS
  TGI: > 100 µM
SK-MEL-2 melanoma
  TGI: > 100 µM
SK-MEL-5 melanoma
  TGI: > 100 µM
SK-OV-3 ovarian
  TGI: > 100 µM
SNB-19 CNS
  TGI: > 100 µM
SNB-75 CNS
  TGI: > 100 µM
SR leukemia
  TGI: > 100 µM
SW-620 colon
  TGI: > 100 µM
T-47D breast
  TGI: > 100 µM
TK-10 renal
  TGI: > 100 µM
U251 CNS
  TGI: > 100 µM
UACC-257 melanoma
  TGI: > 100 µM
UACC-62 melanoma
  TGI: > 100 µM
UO-31 renal
  TGI: > 100 µM

## c1ccc2c(c1)[nH]c1c2nc2sccn21
SNB-75 CNS
  GI50: 20.6 µM and 44.8 µM
  TGI: > 100 µM

## COc1ccc2nc(-c3ccccc3)cc(Nc3ccc(C(C)=O)cc3)c2c1
786-0 renal
  GI50: 1.31 µM
  TGI: 3.54 µM
A549 NSCLC
  GI50: 11.9 µM
  TGI: 60.3 µM
ACHN renal
  GI50: 2.54 µM
  TGI: 9.79 µM
BT-549 breast
  GI50: 15.3 µM
  TGI: 37.5 µM
COLO 205 colon
  GI50: 16.4 µM
  TGI: > 100 µM
DU-145 prostate
  GI50: 14.1 µM
  TGI: 27.1 µM
EKVX NSCLC
  GI50: 5.98 µM
  TGI: 20.5 µM
HCC-2998 colon
  GI50: 2.45 µM
  TGI: 5.27 µM
HCT-116 colon
  GI50: 1.54 µM
  TGI: 4.62 µM
HCT-15 colon
  GI50: 2.25 µM
  TGI: 6.11 µM
HS 578T breast
  GI50: 8.2 µM
  TGI: 27.1 µM
HT29 colon
  GI50: 9.89 µM
  TGI: > 100 µM
IGROV1 ovarian
  GI50: 15.8 µM
  TGI: > 100 µM
K-562 leukemia
  GI50: 1.14 µM
  TGI: 11.7 µM
KM12 colon
  GI50: 1.88 µM
  TGI: 5.2 µM
M14 melanoma
  GI50: 2.61 µM
  TGI: 7.25 µM
MALME-3M melanoma
  GI50: 5.28 µM
  TGI: 18.7 µM
MCF7 breast
  GI50: 2.47 µM
  TGI: 13.9 µM
MDA-MB-231 breast
  GI50: 0.0369 µM
  TGI: 2.13 µM
MOLT-4 leukemia
  GI50: 1.98 µM
  TGI: 4.93 µM
NCI-H226 lung
  GI50: 0.94 µM
  TGI: 3.46 µM
NCI-H23 lung
  GI50: 3.51 µM
  TGI: 11.9 µM
NCI-H460 lung
  GI50: 5.73 µM
  TGI: 19.3 µM
NCI-H522 lung
  GI50: 17.7 µM
  TGI: > 100 µM
NCI/ADR-RES ovarian
  GI50: 2.78 µM
  TGI: 7.29 µM
OVCAR-4 ovarian
  GI50: 12.1 µM
  TGI: > 100 µM
OVCAR-5 ovarian
  GI50: 6.3 µM
  TGI: 19.1 µM
OVCAR-8 ovarian
  GI50: 4.17 µM
  TGI: 35.8 µM
PC-3 prostate
  GI50: 1.16 µM
  TGI: 4.63 µM
RPMI-8226 leukemia
  GI50: 1.72 µM
  TGI: 4.31 µM
SF-268 CNS
  GI50: 7.51 µM
  TGI: 31 µM
SF-295 CNS
  TGI: 1.57 µM
SF-539 CNS
  GI50: 2.37 µM
  TGI: 4.21 µM
SK-MEL-2 melanoma
  GI50: 38.7 µM
  TGI: > 100 µM
SK-MEL-28 melanoma
  GI50: 29.5 µM
  TGI: > 100 µM
SK-MEL-5 melanoma
  GI50: 1.6 µM
  TGI: 3.86 µM
SK-OV-3 ovarian
  GI50: 16.1 µM
  TGI: 36.9 µM
SN12C renal
  GI50: 1.87 µM
  TGI: 4.66 µM
SNB-19 CNS
  GI50: 5.74 µM
  TGI: 26.6 µM
SNB-75 CNS
  GI50: 17.9 µM
  TGI: 42.5 µM
SW-620 colon
  GI50: 5.08 µM
  TGI: 18.5 µM
T-47D breast
  GI50: 15.7 µM
  TGI: > 100 µM
TK-10 renal
  GI50: 5.24 µM
  TGI: 17.2 µM
U251 CNS
  GI50: 2.46 µM
  TGI: 10.8 µM
UACC-257 melanoma
  GI50: 12 µM
  TGI: 32.6 µM
UACC-62 melanoma
  GI50: 2.31 µM
  TGI: 5.13 µM
UO-31 renal
  GI50: 6.2 µM
  TGI: > 100 µM
